Source: US12383692B2, “Systems and methods for synthesis of nitric oxide” (The General Hospital Corporation, priority 2014, dated 2025)

Columns and labels:
Format in all cases: in vivo
[1] = system: anesthetized lamb with acute pulmonary hypertension; assay: Intermittent NO generation with respiratory system 100 (NO generator 102) in anesthetized lambs with U46619-induced pulmonary hypertension; conditions: 4 minutes
Excerpt: (§1) Animal studies were approved by the Institutional Animal Care and Use Committee of Massachusetts General Hospital (Boston, MA). Eight lambs (New England Ovis, Dover, NH) weighing 32±2 kg were studied. General anesthesia was induced with 5% inhaled isoflurane (1-chloro-2,2,2-trifluoroethyldifluromethyl ether, Baxter, Deerfield, IL) in oxygen delivered via a mask and then maintained with 1-4% isoflurane in 50% oxygen during surgery. After tracheal intubation, the lambs were instrumented with indwelling carotid artery pulmonary artery catheters. All hemodynamic measurements were performed in anesthetized lambs ventilated with a mechanical ventilator (model 7200, Puritan Bennett, Pleasanton, CA) at a tidal volume of […] and rate of 12-15 breaths/min.
(§2) To induce pulmonary hypertension, a potent pulmonary vasoconstrictor U46619 (Cayman Chemical, Ann Arbor, MI), the analog of the endoperoxide prostaglandin H2, was infused intravenously at a rate of 0.8-0.9 μg/kg/min to increase pulmonary arterial pressure (PAP) to 30 mmHg. The mean arterial pressure and PAP were continuously monitored using a Gould 6600 amplifier system (Gould Electronics, Inc., Eastlake, OH). Pulmonary capillary wedge pressure, heart rate, and cardiac output were intermittently measured at baseline, during U46619 infusion, and before and after inhalation of NO generated using either the respiratory system 10, the respiratory system 100, or NO delivered and diluted at the same level from a compressed gas cylinder. Cardiac output was assessed by thermal dilution as the average of three measurements after an intravenous bolus injection of 10 mL of ice-cold saline solution. Pulmonary vascular resistance index (PVRI), as well as cardiac index (CI), were calculated using standard formulae. The gas cylinder contained 500 ppm NO diluted in nitrogen.
The respiratory system 100 was tested with an anesthetized lamb as the patient 11. A baseline (BL) was generated then the NO generator 102 of the respiratory system 100 was triggered to intermittently spark (i.e., generate NO) after U46619 was administered for 30 minutes. The electrodes 36 were fabricated from iridium-platinum. The controller 33 was configured to spark the electrodes 36 only during the first 0.8 seconds of inspiration for 4 minutes using the following settings: B=35, N=25, P=240 μs; and H=100 μs and then the controller 33 stopped the NO generator 102, The test was performed when 21% oxygen was supplied in the inspiratory line 18, when 50% oxygen was supplied in the inspiratory line 18, and when NO was supplied to the anesthetized lamb from a gas cylinder.
Also, the reduction in PAP and PVRI for the NO produced by the NO generator 102 was similar to the reduction in PAP and PVRI for NO supplied and diluted from the compressed gas cylinder. […]

[2] = system: anesthetized lamb with acute pulmonary hypertension due to U46619 infusion; assay: Continuous NO generation with respiratory system 10 (NO generator 14) in anesthetized lambs with U46619-induced pulmonary hypertension
Excerpt: as §1, §2
The respiratory system 10 was tested with an anesthetized lamb as the patient 11. A baseline (BL) was generated then the NO generator 14 of the respiratory system 10 was triggered to continuously spark (i.e., generate NO) after […] was administered for 30 minutes. The NO was pumped at 5 L/min into the inspiratory line 18. The electrodes 36 were fabricated from iridium-platinum. Once triggered, the controller 33 was configured to spark the electrodes 36 for 4 minutes using the following settings: B=35, N=25, P=240 μs; and H=100 μs, which produced approximately 40 ppm of NO, and then the controller 33 stopped the NO generator 14. The test was performed when 21% oxygen was supplied to the inlet 24 of the NO generator 14, when 50% oxygen was supplied to the inlet 24 of the NO generator 14, and compared with NO supplied at the same concentration to the anesthetized lamb from a gas cylinder. […]

[3] = system: anesthetized lamb with acute pulmonary hypertension; assay: Continuous NO generation with respiratory system 100 (NO generator 102) in anesthetized lambs with U46619-induced pulmonary hypertension
Excerpt: as §1, §2
The respiratory system 100 was tested with an anesthetized lamb as the patient 11. A baseline (BL) was generated then the NO generator 102 of the respiratory system 100 was triggered to continuously spark (i.e., generate NO) after U46619 was administered for 30 minutes. The electrodes 36 were fabricated from iridium-platinum. Once triggered, the controller 33 was configured to spark the electrodes 36 for 4 minutes using the following settings: B=35, N=25, P=240 μs; and H=100 μs, which produced approximately 40 ppm of NO, and then the controller 33 stopped the NO generator 102. The test was performed when 21% oxygen was supplied in the inspiratory line 18, when 50% oxygen was supplied in the inspiratory line 18, and when NO was supplied to the anesthetized lamb diluted from a compressed gas cylinder.
Also, the reduction in PAP and PVRI for the NO produced by the NO generator 102 was similar to the reduction in PAP and PVRI for the NO supplied by the gas cylinder. […]

[4] = NO produced by NO generator 102, intermittent sparking
[5] = NO produced by NO generator 102 only during first 0.8 seconds of inspiration, breathing 21% and 50% oxygen
[6] = NO produced by NO generator 14, continuous sparking, 4 minutes
[7] = inhaled NO approximately 40 ppm continuously produced by NO generator 14 for 4 minutes, breathing 21% and 50% oxygen
[8] = NO produced by NO generator 102, continuous sparking, 4 minutes
[9] = inhaled NO approximately 40 ppm continuously produced inline by NO generator 102 for 4 minutes, breathing 21% and 50% oxygen

[N]=O [NO, nitric oxide]
reduction in PAP compared with NO supplied and diluted from the compressed gas cylinder [1, 4]: similar | reduction in PVRI compared with NO supplied and diluted from the compressed gas cylinder [1, 4]: similar | mean pulmonary artery pressure (PAP) [1, 5]: rapidly reduced | pulmonary vascular resistance index (PVRI) [1, 5]: rapidly reduced | reduction in PAP compared with NO supplied at the same level by dilution from the gas cylinder [2, 6]: similar | reduction in PVRI compared with NO supplied at the same level by dilution from the gas cylinder [2, 6]: similar | mean pulmonary artery pressure (PAP) [2, 7]: rapidly reduced | pulmonary vascular resistance index (PVRI) [2, 7]: rapidly reduced | reduction in PAP compared with NO supplied by the gas cylinder [3, 8]: similar | reduction in PVRI compared with NO supplied by the gas cylinder [3, 8]: similar | mean pulmonary artery pressure (PAP) [3, 9]: rapidly reduced | pulmonary vascular resistance index (PVRI) [3, 9]: rapidly reduced
